We go through one compound from PMC3964211, “Pharmacokinetic modeling optimizes inhibition of the ‘undruggable’ EWS-FLI1 transcription factor in Ewing Sarcoma” (Oncotarget, 2013).

Series [1] can be described thus: Plasma concentration after IP injection of various formulations in C57BL/6 mice. Type of series: in vivo. As to conditions: C57BL/6 mouse plasma, 20 minutes after IP 200 mg/kg racemic mixture, 10% w/v sucrose, 1% v/v Tween 80, 5% v/v ethanol in DI water, mean ±SD, five mice. On the procedure: The poor oral bioavailability determined from the rat study caused us to focus on IV delivery. Since mice often metabolize compounds differently from rats, we also evaluated the intraperitoneal (IP) PK profle and compared it to the IV profile. We determined pharmacokinetics in C57BL/6 mice given IV (Figure 2A) or IP (Figure 2B) administrations of 75 mg/kg YK-4-279, which was the maximal solubility of compound in 20% Cremophor EL. […] In addition, drug levels in tumor were measured using SCID/bg mice with orthotopic xenografts that were treated with daily IV injections of (S)-YK-4-279 for 6 days. […] In order to determine (S)-YK-4-279 levels in the tumors, the mice were euthanized 2 hours following the fnal IV bolus dose for harvest of both tumors and plasma. […] Since the IV treatment was ineffective at reducing tumor growth, despite measurable levels in the tumor tissue, models of IP administration were used to design follow-up effcacy studies.
The plasma and tumor sample analysis was performed using calibration standards and Quality Control (QC) samples prepared in control rat or mouse plasma and tumor tissues. Plasma and tumor calibration standards were prepared from stock solutions of YK-4-279. The calibration standards, blanks, QC samples, and study samples were then processed by solid-liquid extraction (SLE) followed by analysis using liquid chromatography with mass spectrometry (LC-MS). The LC-MS systems used for the analysis of YK-4-279 was composed of Shimadzo prominence pump and auto-sampler (Kyoto, Japan), a Sciex API 5000 MS (Toronto, Ontario), with turbo ion spary in the positive ion mode. The samples for the analysis of total YK-4-279 were injected into a 50 × 2 mm Gemini- NX, 5 ¼m column (Phenomenex, Torrance, CA). The samples for the analysis of the specific enantiomers of YK-4-279 were injected into a 150 × 2 mm Lux Cellulose-2, 3 ¼m Phenomenex column. The transitions monitored were 366 amu to 135 amu for YK-4-279 and 369 amu to 138 amu for the YK-4-279-d3 internal standard. YK-4-279 concentrations were calculated using peak area response ratios and a regression equation constructed from the concentrations and peak area response ratios of the calibration standards. The lower limit of quantitation was 5.0 ng/mL in plasma and […] in tumor tissue. The concentration-time profiles were evaluated by compartmental modeling and non-compartmental analysis using WinNonlin (Pharsight Corporation, Mountain View, CA). The PK parameters obtained from the compartmental modeling were used in simulations to identify optimal dose level and dosing schedule for maintaining plasma concentration of (S)-YK-4-279 above 3 ¼M.

The test system of another series is A4573 cells. The experiment in a line: Time point re-plating (colony formation) assay. The format is cell-based. As to conditions: for Colony counts: then replated without YK-4-279. On the procedure:
We determined the replating efficiency of A4573 cells after 12–84 hours of treatment with 3 ¼M YK-4-279. Cells were treated for the indicated exposure time then replated without YK-4-279 to assay for colony formation (Figure 1A).
A4573 cells were plated at a density of 2×10^5 cells/dish in 60 mm dishes and incubated for 8 hours before treatment start with 3 ¼M racemic YK-4-279. Cells were removed with trypsin at their respective treatment time, cell suspensions were centrifuged, and cells were resuspended in 500 ¼l of media. One hundred microliters of cell suspension was plated in each 10 cm dish (triplicates) with 12 ml of media. Dishes were incubated for 1 week before staining with crystal violet stain. Colonies were counted using Nikon NIS Elements BR Software.

The next series relates to A4573 xenografts. The experiment in a line: IV efficacy experiment, A4573 xenografts, with plasma and tumor drug levels. Type of series: in vivo, SCID/bg mice. The protocol: (§1) The poor oral bioavailability determined from the rat study caused us to focus on IV delivery. Since mice often metabolize compounds differently from rats, we also evaluated the intraperitoneal (IP) PK profle and compared it to the IV profile. We determined pharmacokinetics in C57BL/6 mice given IV (Figure 2A) or IP (Figure 2B) administrations of 75 mg/kg YK-4-279, which was the maximal solubility of compound in 20% Cremophor EL. […] In addition, drug levels in tumor were measured using SCID/bg mice with orthotopic xenografts that were treated with daily IV injections of (S)-YK-4-279 for 6 days. […]
Twenty Fox Chase SCID beige mice per sex were inoculated with 2 million of A4573 cells. Tumor volume was monitored every day by caliper. […]
(§2) The plasma and tumor sample analysis was performed using calibration standards and Quality Control (QC) samples prepared in control rat or mouse plasma and tumor tissues. […] The transitions monitored were 366 amu to 135 amu for YK-4-279 and 369 amu to 138 amu for the YK-4-279-d3 internal standard. YK-4-279 concentrations were calculated using peak area response ratios and a regression equation constructed from the concentrations and peak area response ratios of the calibration standards. The lower limit of quantitation was 5.0 ng/mL in plasma and 5.0 ¼g/g in tumor tissue. […]

Series [2] can be described thus: Pharmacokinetics in C57BL/6 mice, IV or IP 75 mg/kg. The note with it: IV 75 mg/kg. Type of series: in vivo. On the procedure: as §1
as §2, with “tissue. The concentration-time profiles were evaluated by compartmental modeling and non-compartmental analysis using WinNonlin (Pharsight Corporation, Mountain View, CA).” for “tissue.”

Setting [3] is: A4573 cells, 3 ¼M YK-4-279, 84 hours exposure.

As for `COc1ccc(C(=O)CC2(O)C(=O)Nc3c(Cl)ccc(Cl)c32)cc1` (stereo not shown) [YK-4-279], the “(S)-YK-4-279 Concentrations” value was 10.5 ± 8.6 ¼M in series [1] (0.25% lecithin, 0% DMSO, 0% soybean oil); 20.9 ± 22.8 ¼M in series [1] (1.2% lecithin, 0% DMSO, 10% soybean oil); 35.8 ± 45.0 ¼M in series [1] (1.2% lecithin, 10% DMSO, 0% soybean oil); 39.1 ± 54.6 ¼M in series [1] (1.2% lecithin, 10% DMSO, 10% soybean oil); 19.8 ± 20.5 ¼M in series [1] (2.5% lecithin, 0% DMSO, 10% soybean oil); 59.7 ± 58.6 ¼M in series [1] (2.5% lecithin, 10% DMSO, 0% soybean oil). In addition, the “(S)-YK-4-279 Concentrations” value in series [1] (2.5% lecithin, 10% DMSO, 10% soybean oil) is 21.3 ± 11.3 ¼M. In addition, in the series on A4573 cells (A4573 cells, 3 ¼M YK-4-279), the “Decrease in colony growth between the 24 and 36 hour time points” value is 3 fold. The Colony counts in the series with A4573 cells (A4573 cells, 3 ¼M YK-4-279, 24 hour exposure) is recorded as 2229±101 colonies; in the series on A4573 cells (A4573 cells, 3 ¼M YK-4-279, 72 hours exposure), 53 colonies; in the series with A4573 cells (setting [3]), 25±12 colonies. Also, the “Drop in colonies from the 24 hour time point” value with A4573 cells (setting [3]) is reported as 98.9%. For the same compound, the “Growth of surviving colonies replated in continuous presence of compound” value in the series on A4573 cells (colonies from 72 and 84 hours harvested and replated in continuous presence of 3 ¼M YK-4-279) was “no growth was observed”. Also, the “Effect on xenograft tumor growth” value in the series on A4573 xenografts (A4573 xenografts in SCID/bg mice, 75 mg/kg IV QD) is recorded as “tumors did not regress nor reduce their growth rate”. Moreover, the “Plasma levels 2 hours following the final IV bolus dose” value in the series on A4573 xenografts (SCID/bg mice with A4573 xenografts, repeated IV injections) is listed as 1.5–18 ¼M. For the same compound, the “Time that peak levels would exceed 3 ¼M” value in series [2] is on record as ~ 1 hour.
